In ChEMBL document CHEMBL3507680, “University of Dundee, Gates Library screen for HepG2 cell viability”:

Experiment: Human HepG2 cell viability assay in 384 well format
Assay type: toxicity, cell-based
Design: dose 125 nL, time 70.5 hour; cytotoxicity at 70.5 h: concentration not given beside the values
Settings: HepG2 cells, read-out: Inhibition

Compound	cytotoxicity at 70.5 h [%]
CN(C)c1ccc(C2CCN(c3cnccn3)CC2)nc1	6.87
CNS(=O)(=O)CC(=O)N(Cc1ccsc1)c1ccccc1	-8.25
CCc1ccc(NC(=O)C(C)Nc2cccc3c2OCCO3)cc1 (stereo not given)	2
Cc1c(NCC(C)(C)C)cccc1C(=O)N(C)Cc1ncnn1C	21
Cc1oc(-c2ccco2)nc1CC(=O)N1CCC(CCO)C1 (stereo not given)	-11
CC(C)c1cc(C2CCN(C(=O)Cn3nc4ccccc4n3)CC2)[nH]n1	-5.96
O=C(NCc1ccccc1)N1CCC(Oc2ncccc2Cl)CC1	11
Cc1ccc(C(=O)OC(C)Cn2cccn2)c(=O)[nH]1 (stereo not given)	-0.535
O=C(CSC1=NS(=O)(=O)c2cc(Cl)ccc2N1)c1ccccc1	23.9
CC(=O)N1CCCCC[C@@H]2[C@@H]1[C@H](c1cccc(F)c1)CN2C(=O)C1CC1	-3.31
COC1CCN(C(=O)Cn2ccc3ccccc32)CC1	-3.16
COCC(=O)N1CCCC1c1cc(Nc2nnc(C)s2)nc(C)n1 (stereo not given)	21.4
O=C(COCc1ccccc1)Nc1ccccn1	0.318
Cc1ccnn1CCC(=O)N1CCN(C2CCc3ccccc3C2)CC1 (stereo not given)	-12.6
Cc1ccc(NC(=O)NCCn2cnc(C)c(C)c2=O)cc1F	-1.25
Cc1n[nH]c(C)c1CN(C)C(C(=O)O)c1ccc2c(c1)OCO2 (stereo not given)	6.84
O=C(C1=NN(Cc2ccccc2)c2ccccc2S1(=O)=O)N1CCCC1	-0.281
O=C(Cn1cnc2ccsc2c1=O)c1ccc2c(c1)OCCO2	-8.67
O=C(CC1CC1)N1C[C@H]2CN(CC3CC3)C(=O)[C@H]2C1	-1.89
Cc1nc(C(C)(C)NC(=O)Nc2cccc(C#N)c2)no1	-2.69
CC(C)c1cc(C(=O)N2CCC3(CC2)c2ccccc2[C@@H](N)[C@@H]3O)cs1	-10.7
c1cc2c(cc1CN1CC[C@H]3[C@H]1CCN3CC1CC1)OCO2	-1.51
Cc1c(C(=O)O)cnn1-c1ccc(-c2nc(C3CC3)no2)cn1	-14
c1cnc(NCc2nnn3c2CN(Cc2ccco2)CCC3)nc1	-109
Cc1cc(OCC(N)=O)ccc1NC(=O)C(C)Cc1ccccc1F (stereo not given)	-2.1
CNc1cc(C)nc(-c2cc(NC)nc3[nH]ccc23)n1	-8.84
Fc1cnc(N2CC[C@@H](N3CCOCC3)[C@@H]2Cc2ccncc2)nc1	15.9

Compound	cytotoxicity at 70.5 h [%]
Cc1cc(C(=O)N2CCCCC2C)ccc1NCC(=O)N1CCOCC1 (stereo not given)	26.9
CCOC(=O)N1CCN(C(=O)Cn2ccc3ncccc3c2=O)CC1	-8.19
CN(CC(=O)Nc1cccnc1)C1CCCN(c2cccnn2)C1 (stereo not given)	31.2
Cc1cnc(C(=O)N2CCCCC2c2ccc(CN(C)C)cc2)cn1 (stereo not given)	8.8
Cn1ccnc1CN1C(=O)CO[C@H]2CN(CCCc3ccccc3)C[C@H]21	-1.68
CCCN(C)c1ccc(C(=O)Nc2c(C)nn(C(C)C)c2C)cc1	-3.3
COc1ccc(CN2CCC3(CCN(c4cccnc4)C3=O)C2)cc1 (stereo not given)	1.92
Cc1cc(CN(C)C(=O)Nc2cnc3c(c2)c(C)nn3C)no1	-8.11
CN(C)C[C@H]1OC[C@@H]2CCN(C(=O)c3ccco3)C[C@@H]21	-1.52
NC(=O)N1CCC(C(=O)NC2CCc3nccn3C2)CC1 (stereo not given)	-110
CN1CCN(CC[C@@H]2CC[C@H](O)[C@@H](C(=O)Nc3ccccc3)O2)CC1	1.15
COc1ccc(C(=O)NS(=O)(=O)c2cncc(Br)c2)cc1	-16.9
O=C(O)c1cnc(N2CCC(O)CC2)nc1COc1cccc(F)c1	-12.9
CNC(=O)c1ccc(CNC(=O)c2cc(C(C)C)n(C)n2)cc1	10.9
O=C(O)C1(Cc2ccccc2F)CCCN(c2ncnc3[nH]ccc23)C1 (stereo not given)	-0.879
CN(Cc1cc(Br)cn1C)C(=O)c1ccon1	-2.35
Cc1csc(N2CCCN(C3Cc4ccccc4C3)CC2)n1	-15.6
CCN1CC2(CCC1=O)CCN(Cc1cc(F)ccc1Cl)CC2	-0.396
COCCN1CCCc2sc(C(=O)N3CCCN(C)CC3)nc21	11.7
Cc1cc(Cc2ccc(S(=O)(=O)N3CCSCC3)cc2)c(=O)[nH]n1	1.5
CCCS(=O)(=O)NCCn1ccc(-c2cccs2)n1	25.9
CC(C)c1ncc(-c2cc(C3CCC3)nc(N)c2C#N)cn1	-8.31
Cc1noc(C)c1CN1CCn2cc(CN3CCCCC3)nc2C1	-3.15
CCn1c(CN(C)C(=O)c2ccc(N(C)C)nc2)nc2ccccc21	-14
Cc1cc(-c2cnc(N3CCSCC3)nc2C(C)C)on1	-0.852
CC(C)C[C@H](N)C(=O)N1CC2(CCNCC2)c2cc(Cl)ccc21	3.38
Cc1nc(O)cc(CN2C[C@H](NC(=O)C3CCC3)[C@@H](C3CC3)C2)n1	-3.55

Compound	cytotoxicity at 70.5 h [%]
COCCNC(=O)CCn1ncc2c(Cl)cccc21	16.6
Cc1ccc(CN2CCC3(CCN(c4cnn(C)c4)C3=O)C2)s1 (stereo not given)	13.4
O=C1O[C@@H]2CN(c3cnccn3)C[C@@H]2N1CCCc1ccc(F)cc1	-7.8
Cc1nc(CN2CCCCC2Cn2cccn2)nc2ccccc12 (stereo not given)	-5.42
Cc1cnn(Cc2ccc(NC(=O)N[C@@H]3C=C[C@H](CO)C3)cc2)c1	-15.1
CC(C)(C)C(=O)N1CCCC1(C(=O)N1CCCC1)c1cnccn1 (stereo not given)	18.9
O=C(c1ccccc1)N1CCCn2c(CN3CCCCC3)nnc2C1	26.2
CC(=O)N1CCN(Cc2ccc(F)c(C(F)(F)F)c2)CC(O)C1 (stereo not given)	-8.55
COc1cccc(CNCc2c(C(C)C)nn(C)c2N(C)C)c1	1.8
Cc1cccc(CNC2CCCc3c2cnn3C)c1 (stereo not given)	-6.91
COc1cc(C(=O)NCCS(=O)(=O)N(C)C)c2ccccc2n1	1.37
CCCc1nc(CN2CCCC2Cn2cncn2)no1 (stereo not given)	-6.08
CCN(CC)C(=O)c1nnsc1-c1ccc(C)cc1	-8.98
CC1CN(Cc2noc(C3CC3)n2)CCN1Cc1nccn1C (stereo not given)	4.66
Cc1ccsc1CNC(=O)N1CCC(Cc2cnn(C)c2)C1 (stereo not given)	-3.88
COc1nc2c(cc1C(=O)N(C)Cc1[nH]nc3c1CCC3)CCC2	27.9
Cc1cc(C(F)(F)F)nn1CCCNC(=O)C1CCCC1	-1.45
CCC(CC)c1cc(CNC(=O)N2CCOC(C)C2)on1 (stereo not given)	-9.44
N#Cc1ccc(CNCCS(=O)(=O)N2CCc3ccccc32)cc1	-10.2
Cc1nc(C)n(CC2CCCN(CCC(=O)N3CCCCC3)C2)n1 (stereo not given)	-1.55
COc1ccc2c(ccn2CCC(=O)Nc2n[nH]c(CC(C)C)n2)c1	24
CS(=O)(=O)CC1CCCN(C(=O)Cn2cccc(C(F)(F)F)c2=O)C1 (stereo not given)	6.87
COCCC(=O)N1CCCC2(CCC(=O)N2CCOC)CC1 (stereo not given)	-7.23
Cc1noc(C)c1C(=O)N1CCCCC1c1cc(C)n2ccnc2n1 (stereo not given)	-10.1
O=C(NCC1CCS(=O)(=O)C1)N1CCN(c2cnccn2)CC1 (stereo not given)	3.28
CC(=O)N1CCC(Cc2cnc(-c3c(C)nn(C)c3C)cn2)C1 (stereo not given)	-25.8
